Here are results for two compounds from ChEMBL document CHEMBL1155609, “New cytotoxic sterol glycosides from the octocoral Carijoa (Telesto) riisei” (2000).

Values after ≈ are worked out from the molar mass of the structure shown.

The test deals with HCT-116. As to the kind of experiment: Cytotoxicity against human HCT116 cells. Format: functional. The settings on record: read-out: ED50 (the source's name).

For `CC(=O)OCC(C)CCC[C@@H](C)[C@H]1CC[C@H]2[C@@H]3C[C@@H](O)[C@@]4(O)C[C@@H](O[C@@H]5OC[C@@H](O)[C@@H](OC(C)=O)[C@@H]5O)CC[C@]4(C)[C@H]3CC[C@]12C` (some centres not stated) [RIISEIN A], the EC50 was 2 µg/mL (≈ 3.06 µM). With `CC(=O)OCC(C)CCC[C@@H](C)[C@H]1CC[C@H]2[C@@H]3C[C@@H](O)[C@@]4(O)C[C@@H](O[C@@H]5OC[C@@H](OC(C)=O)[C@@H](O)[C@@H]5O)CC[C@]4(C)[C@H]3CC[C@]12C` (some centres not stated) [RIISEIN B] the figure was 2 µg/mL (≈ 3.06 µM).
